# Reference: patent US20160068818A1, “A METHOD FOR GENERATING INDUCED PLURIPOTENT STEM CELLS” (Glykos Finland Oy, priority 2013, published 2016)
# Entries after “also recorded” stand apart in the source; their conditions may differ.
# How the values were obtained:
# Format in all cases: cell-based, human
# [1] = tested on: hPSC cells; test: Clonogenicity assay on dispersed single cells; details: pinacidil 100 μM during passaging
# Method: Cells were dissociated with TrypLE for 5 minutes and passed through an 80-μm cell strainer (Becton Dickinson). Dissociated single cells from either ECA or Matrigel were seeded onto both ECA and Matrigel (35 cells/cm^2) and cultured in mouse embryonic fibroblast-conditioned medium (CM) supplemented with 8 ng/ml basic fibroblast growth factor (bFGF). Pinacidil (100 μM) was used during passaging. To evaluate clonogenic capacity, cells were alkaline phosphatase stained and colony numbers were counted 10 days after plating.
# The ability of the ECA matrix to support clonogenicity of hPSC cells was studied by plating dispersed cells first adapted to ECA or Matrigel for at least two passages on either of the two matrices at the density of 35 cells/cm^2.
# [2] = tested on: hESC and hiPSC (FES 29, HEL 11.4) attachment to ECA; test: Validation of binding specificity: inhibition of cell attachment onto ECA; details: for total number of attached cells with vs without pinacidil: on ECA, counted 20 h after plating; for inhibition of cell attachment onto ECA: 100 mM in culture media, attached cells counted after 20 h
# Method: Cells were passaged and plated as described earlier. The two compounds expected to act as specific binding inhibitors for ECA were lactose monohydrate (Sigma-Aldrich, 100 mM) and lacto-N-neotetraose (Kyowa Hakko Kogyo, 100 mM). Saccharose (Sigma-Aldrich, 100 mM) was used as a control. The inhibitors were added to culture media at the time of passaging and the attached cells were counted after 20 hours.
# To assess the specificity of the cell-lectin interaction in supporting stem cell attachment to the growth surface, we performed inhibition experiments with specific disaccharide inhibitors and control disaccharides. […] The experiments were performed either in the presence (FIG. 4A) of absence (FIG. 4B) of pinacidil. Even if the effect of the inhibitors was similar in both conditions, the total number of attached cells was […] with pinacidil.
# The attached cells were counted 20 h after plating. Data represent the mean (±SEM) of both cell lines, FES 29 and HEL 11.4. The total number of attached cells was 2-4 fold higher when Pinacidil was used (p<0.001).
# [3] = tested on: hPSC lines FES29 and HEL 11.4; test: Long-term culture of hPSC lines on ECA-coated plates (markers, qPCR array, karyotype); details: mEF conditioned media
# Method: Cells were passaged by using 0.1 mg/ml collagenase IV (Invitrogen) for 5 min at +37° C. and harvested onto ECA (Sigma-Aldrich) and Matrigel (Becton Dickinson) coated plates and cultured either in StemPro® or in mEF conditioned-medium (CM) (KO-DMEM supplemented with 20% KO-SR, 2 mM Glutamax, 0.1 mM β-mercaptoethanol, 0.1 mM non-essential amino acids (NEAA), all from Invitrogen, Carlsbad, Calif., USA) and supplemented with 8 ng/ml recombinant human bFGF (Invitrogen, Carlsbad, Calif., USA). Pinacidil (Sigma-Aldrich, 100 μM) was added to culture media during passaging. In some experiments, Y-27632 (10 μM) was added to culture media during passaging. In all experiments MatrigelTM (BD Biosciences) was used as control matrix. The Matrigel plates were prepared as recommended by the manufacturer. […] Real time SYBR Green quantitative PCR (qPCR) analyses was performed with Corbett Rotor-Gene 6000 (Corbett Life Science, Sydney, Australia) using the following conditions: 95° C. […] The data was analyzed according to comparative Ct method (Applied Biosystems, User Bulletin #2). […] All samples and controls were analyzed in duplicates. […] Karyotype was detected by G-banding technique in cytogenetics laboratory of the […] […] Long-term culturing on ECA-coated plates was evaluated with hPSCs lines (FES29 and HEL 11.4) and the results were compared to the same cell lines cultured on Matrigel. […]
smiles,measurement,setting,value
CC(N/C(=N\C#N)Nc1ccncc1)C(C)(C)C (centres unmarked) [pinacidil],development and survival of single-cell derived clones,[1],highly useful
same,total number of attached cells with vs without pinacidil,[2],4 fold
same,total number of attached cells with vs without pinacidil,[2]; listed as Pinacidil,2-4 fold
same,cell attachment and morphology on ECA without/with Rho-associated kinase inhibitor during passaging,[3],Without pinacidil the cells did not attach as effectively
CC(=O)N[C@H]1[C@H](O[C@H]2[C@@H](O)[C@@H](CO)O[C@@H](O[C@H]3[C@H](O)[C@@H](O)C(O)O[C@@H]3CO)[C@@H]2O)O[C@H](CO)[C@@H](O[C@@H]2O[C@H](CO)[C@H](O)[C@H](O)[C@H]2O)[C@@H]1O (mixture of isomers) [lacto-N-neotetraose],inhibition of cell attachment onto ECA,[2],as effective as lactose; also recorded: inhibited significantly
OC[C@H]1O[C@@](CO)(O[C@H]2O[C@H](CO)[C@@H](O)[C@H](O)[C@H]2O)[C@@H](O)[C@@H]1O [saccharose],inhibition of cell attachment onto ECA,[2],no inhibitory activity
"O.OC[C@H]1O[C@@H](O[C@H]2[C@H](O)[C@@H](O)C(O)O[C@@H]2CO)[C@H](O)[C@@H](O)[C@H]1O (some centres unmarked) [Lactose, lactose monohydrate]",inhibition of cell attachment onto ECA,"[2]; listed as lactose monohydrate, monohydrate",inhibited significantly
same,inhibition of cell attachment onto ECA,[2]; monohydrate,inhibited cell attachment effectively
